Source: ChEMBL document CHEMBL1124371, “A novel solution-stable, water-soluble prodrug type for drugs containing a hydroxyl or an NH-acidic group” (J Med Chem, 1989)

Species on record: Homo sapiens
Test: Ester prodrugs: T1/2 in human plasma
Type: ADME
Settings: not given

Row | SMILES | T1/2
1 | CCN(CC)Cc1cccc(C(=O)OCn2c(=O)oc3ccc(Cl)cc32)c1 | 28 min

Same assay, conditions: human, in vitro

Row | SMILES | T1/2
2 | CN1CCN(Cc2cccc(C(=O)OCC(=O)[C@@]3(O)CCC4C5CCC6=CC(=O)CCC6(C)C5C(O)CC43C)c2)CC1 (stereo not given in full) | 15 min
3 | CN1CCN(Cc2cccc(C(=O)OCn3cnc4c3c(=O)n(C)c(=O)n4C)c2)CC1 | 0.4 min
4 | CC(=O)Nc1ccc(OC(=O)c2cccc(CN3CCN(C)CC3)c2)cc1 | 27 min
5 | CN1CCN(Cc2cccc(C(=O)OCC(=O)[C@@]3(O)CCC4C5CCC6=CC(=O)C=CC6(C)C5C(O)CC43C)c2)CC1 (stereo not given in full) | 18 min
6 | Cc1ncc([N+](=O)[O-])n1CCOC(=O)c1ccc(CN(C)C)cc1 | 4.7 min
7 | CC(=O)Nc1ccc(OC(=O)c2cccc(CN3CCOCC3)c2)cc1 | 56 min
8 | CN1CCN(Cc2ccc(C(=O)OCC(=O)[C@@]3(O)CCC4C5CCC6=CC(=O)CCC6(C)C5C(O)CC43C)cc2)CC1 (stereo not given in full) | 147 min
9 | CC12CCC(=O)C=C1CCC1C2C(O)CC2(C)C1CC[C@]2(O)C(=O)COC(=O)c1ccc(CN2CCOCC2)cc1 (stereo not given in full) | 92 min
10 | CN1CCN(Cc2cccc(C(=O)OCN3C(=O)NC(c4ccccc4)(c4ccccc4)C3=O)c2)CC1 | 7 min
11 | O=C(OCn1ncc2c(=O)[nH]cnc21)c1ccc(CN2CCOCC2)cc1 | 1.9 min
12 | O=C(OCn1ncc2c(=O)[nH]cnc21)c1cccc(CN2CCOCC2)c1 | 8.5 min
13 | CCN(CC)Cc1cccc(C(=O)OCn2cnc3c2c(=O)n(C)c(=O)n3C)c1 | 0.4 min
14 | Cc1ncc([N+](=O)[O-])n1CCOC(=O)c1ccc(CN2CCN(C)CC2)cc1 | 2.4 min
15 | Cc1ncc([N+](=O)[O-])n1CCOC(=O)c1ccc(CN2CCOCC2)cc1 | 0.4 min
16 | CN1CCN(Cc2cccc(C(=O)OCC(NC(=O)C(Cl)Cl)C(O)c3ccc([N+](=O)[O-])cc3)c2)CC1 (stereo not given) | 5 min
17 | O=C(OCn1ncc2c(=O)[nH]cnc21)c1cccc(Cn2ccnc2)c1 | 3.6 min
18 | Cn1c(=O)c2c(ncn2COC(=O)c2cccc(Cn3ccnc3)c2)n(C)c1=O | 0.9 min
19 | C[C@H]1CC2C(C(O)CC3(C)C2CC[C@]3(O)C(=O)COC(=O)c2cccc(CN(C)CCN(C)C)c2)C2(C)C=CC(=O)C=C12 (stereo not given in full) | 18 min
20 | CCN(CC)Cc1ccc(C(=O)OCC(=O)[C@@]2(O)CCC3C4CCC5=CC(=O)CCC5(C)C4C(O)CC32C)cc1 (stereo not given in full) | 107 min
21 | CCN(CC)Cc1cccc(C(=O)OCC(NC(=O)C(Cl)Cl)C(O)c2ccc([N+](=O)[O-])cc2)c1 (stereo not given) | 8 min

Row | SMILES | T1/2
22 | CCN(CC)Cc1cccc(C(=O)OCC(=O)[C@@]2(O)CCC3C4CCC5=CC(=O)CCC5(C)C4C(O)CC32C)c1 (stereo not given in full) | 34 min
23 | Nc1nc(O)c2ncn(COCCOC(=O)c3ccc(CN4CCOCC4)cc3)c2n1 | 3.7 min
24 | CC(=O)Nc1ccc(OC(=O)c2ccc(CN(C)C)cc2)cc1 | 87 min
25 | CCN(CC)CCN(CC)Cc1cccc(C(=O)OCC(NC(=O)C(Cl)Cl)C(O)c2ccc([N+](=O)[O-])cc2)c1 (stereo not given) | 0.9 min
26 | CCN(CC)CCN(CC)Cc1cccc(C(=O)OCC(=O)[C@@]2(O)CCC3C4CCC5=CC(=O)CCC5(C)C4C(O)CC32C)c1 (stereo not given in full) | 8 min
27 | Cn1c(=O)c2c(ncn2COC(=O)c2cccc(CN3CCOCC3)c2)n(C)c1=O | 2.8 min
28 | CN(C)Cc1ccc(C(=O)OCn2ncc3c(=O)[nH]cnc32)cc1 | 9.4 min
29 | CCN(CC)Cc1cccc(C(=O)OCN2C(=O)NC(c3ccccc3)(c3ccccc3)C2=O)c1 | 20 min
30 | Cc1ncc([N+](=O)[O-])n1CCOC(=O)c1cccc(CN2CCN(C)CC2)c1 | 0.6 min
31 | Cc1ncc([N+](=O)[O-])n1CCOC(=O)c1cccc(CN2CCOCC2)c1 | 5 min
32 | CN1CCN(Cc2cccc(C(=O)OCn3ncc4c(=O)[nH]cnc43)c2)CC1 | 0.5 min
33 | CCCNCc1cccc(C(=O)OCC(=O)[C@@]2(O)CCC3C4CCC5=CC(=O)CCC5(C)C4C(O)CC32C)c1 (stereo not given in full) | 38 min
34 | O=C(OCC(NC(=O)C(Cl)Cl)C(O)c1ccc([N+](=O)[O-])cc1)c1cccc(CN2CCOCC2)c1 (stereo not given) | 55 min
35 | CC12CCC(=O)C=C1CCC1C2C(O)CC2(C)C1CC[C@]2(O)C(=O)COC(=O)c1cccc(CN2CCOCC2)c1 (stereo not given in full) | 62 min
36 | C[C@H]1CC2C(C(O)CC3(C)C2CC[C@]3(O)C(=O)COC(=O)c2cccc(CN3CCN(C)CC3)c2)C2(C)C=CC(=O)C=C12 (stereo not given in full) | 29 min
37 | CCN(CC)CCN(CC)Cc1cccc(C(=O)Oc2ccc(NC(C)=O)cc2)c1 | 15 min
38 | CN1CCN(Cc2ccc(C(=O)OCn3ncc4c(=O)[nH]cnc43)cc2)CC1 | 11 min
39 | CNCc1cccc(C(=O)OCC(=O)[C@@]2(O)CCC3C4CCC5=CC(=O)CCC5(C)C4C(O)CC32C)c1 (stereo not given in full) | 25 min
40 | CC(=O)Nc1ccc(OC(=O)c2ccc(CN3CCN(C)CC3)cc2)cc1 | 487 min
